{
  "source": "patent US7060872B1",
  "about": "“Method for producing plants having modified canopy size or seedless fruit” (The State of Israel-Ministry of Agriculture & Rural …, priority 1998, dated 2006)",
  "tested_on": "transgenic tomato plants expressing the sps streptavidin construct",
  "assay": "External biotin application to sps transgenic tomato plants (reversal of degeneration)",
  "type": "in vivo",
  "text": "The morphology and development of leaves of 6 weeks old plants obtained from non transgenic plant and transgenic tomato plants expressing the sps streptavidin construct and treated daily with biotin were also examined. FIG. 7 depicts the results of this study. […] This degeneration was to a lesser degree in the treated plants. Non transgenic plants both biotin treated and untreated appeared normal.\nAll of the plants treated with biotin remained green and vital throughout their development.",
  "note": "Entries after “also recorded” stand apart in the source; their conditions may differ.",
  "data": [
    {"smiles": "O=C(O)CCCC[C@@H]1SC[C@@H]2NC(=O)N[C@@H]21", "note": "[biotin]", "values": [
      {"measurement": "effect of daily biotin spraying after the initial chlorotic symptoms, on leaves", "setting": "2 μM biotin, daily spray", "result": "development of normal leaves"},
      {"measurement": "effect of daily biotin spraying after the initial necrotic lesion", "setting": "2 μM biotin, daily spray", "result": "stopped or prevented further development of degenerative symptoms"},
      {"measurement": "effect of daily biotin spraying after the initial flower buds, on fruit and seed", "setting": "2 μM biotin, daily spray, plants with seedless fruit", "result": "development of normal fruit and the restoration of normal seed development"},
      {"measurement": "effect of spraying biotin on the affected area", "setting": "6 mg/liter biotin", "result": "stopped the degeneration process and plants' growth was restored"},
      {"measurement": "effect of biotin application to T0 plants on germination of their seeds", "setting": "seeds otherwise non-germinating (FIG. 6)", "result": "restored the germination; also recorded: normal germination"},
      {"measurement": "effect of biotin solution on leaf development of a degenerated T0 plant", "setting": "seen 10 or 20 days after application (FIG. 5)", "result": "restored normal leaf development"},
      {"measurement": "tissue degeneration after a single biotin treatment", "setting": "treated once after 3 weeks, 6 weeks old plants, versus untreated transgenic plants (FIG. 7)", "result": "lesser degree"}
    ]}
  ]
}
